These results are taken from patent US9700539B2, “Therapeutic application of (Boc)2-creatine” (UNIVERSITA' DEGLI STUDI DI GENOVA, priority 2013, dated 2017).

Data set [1] concerns creatine kinase enzyme. To be noted: literature; cited from earlier work.
Data set [2] has as its system tumor cell lines that express a high level of creatine kinase. To be noted: literature; cited from earlier work.
Data set [3] has as its system slices of mouse hippocampus. Briefly: Incubation of mouse hippocampus slices with (Boc)2-creatine. It is filed as cell-based. To be noted: 2 mM, 3 hours at 36° C. An excerpt: Of course, high concentrations of (Boc)2-creatine will have a cytotoxic effect. […] Since tumor development is due to an uncontrolled cellular progression, a molecule which can control the main source of cell energy gives a valid means of controlling cell proliferation.

Data set [4] relates to creatine kinase enzyme. Briefly: Creatine kinase activity by the coupled enzymatic method (pyruvate kinase/lactate dehydrogenase, NADH at 340 nm). It is filed as biochemical. To be noted: 2 mM creatine. The protocol: The activity of the creatine kinase enzyme was measured by the enzymatic coupling method (Bergmeyer 1974). In this method, the ATP hydrolysis is coupled with the NADH oxidation, which is monitored, by means of a spectrophotometer, by the decrease in absorbance at 340 nm (ε340=6.22 mM^−1 cm^−1).
The dosage of the creatine kinase was carried out with the spectrophotometer at 340 nm, following the oxidation of the pyridine coenzyme NADH, which is expressed as a decrease in the absorbance. To be able to carry out the dosage, the reaction of the creatine kinase was combined with two other enzymatic reactions catalyzed respectively by the pyruvate kinase and by the lactate dehydrogenase (Bergmeyer 1974). This method, defined as the coupled method, is necessary because both the substrata and the products of the creatine kinase are not directly visible to the spectrophotometer. In particular, the dosage solution contained the following compounds: 100 mM Tris HCl, pH 7.5, 2 mM MgCl2, 75 mM KCl, 2 mM ATP, 0.5 mM phosphoenolpyruvate, 0.16 mM NADH, 10 IU of pyruvate kinase and of lactate dehydrogenase, in a final volume of 1 ml. The reaction begins by the addition of 2 mM of creatine. The dosage is carried out continuously, i.e. the enzyme activity is followed in real time during the development of the reaction. The dosage trend is monitored by a register connected to the spectrophotometer. The reactions take place in the cuvette, as illustrated in FIG. 1.
To verify the inhibiting effect of (Boc)2-creatine, concentrations between 0.25 and 2 mM were added to the dosage solution, before the addition of the creatine.
To identify the type of inhibition, the maximum kinetic speed (Vmax) and the Michaelis Menten constant (Km) were measured. To be able to carry out the experiment, for each concentration of (Boc)2-creatine, the dosage was carried out in the presence of different substratum concentrations (creatine). The data were analyzed with the Lineweaver-Burk double-reciprocal plot.

Take `NC(=O)CI` [Iodoacetamide]: the “type of inhibition of creatine kinase” value in data set [1] was “complete and irreversible inhibition”.
As to `N=C1NCCN1CC(=O)O` [cyclocreatine, 1-carboxymethyl-2-iminoimidazolidine], the “inhibition of tumor cell lines” value in data set [2] is reported as “suitable for inhibiting tumor cell lines that express a high level of creatine kinase”.
For `CN(CC(=O)O)C(=NC(=O)OC(C)(C)C)NC(=O)OC(C)(C)C` [(Boc)2-creatine], in data set [3], the “cytotoxic effect on hippocampus slices (vital signs)” value is recorded as “show no vital signs”. Moreover, the results for the “inhibition of the creatine kinase” value in data set [4] (0.25 mM (Boc)2-creatine), in data set [4] (0.5 mM (Boc)2-creatine) and in data set [4] (0.75 mM (Boc)2-creatine) were 21%, 39% and 75%, respectively. The “maximum inhibition of the creatine kinase” value in data set [4] (1 mM (Boc)2-creatine) is recorded as 95%.
`CCCCCC(CCCC)=C([Te]c1ccccc1)C(=O)c1ccccc1` [3-butyl-1-phenyl-2-(phenyltelluro)oct-en-1-one]: in data set [1], the “type of inhibition of creatine kinase” value is “competitive inhibitor”.
